Assay results: PubChem BioAssay (NCI)
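Step 1: Grow cells in 96-well plates. Step 2: Expose to compound for 48 hours at 5 concentrations. Step 3: Interpolate endpoints linearly; if unreached, use highest concentration. GI50: concentration for 50% inhibition of growth. At the TGI there is no net growth.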

Key:
Assay in all cases: DTP human tumour cell line panel, 48 h
786-0 renal = system: 786-0 renal
A498 renal = system: A498 renal
ACHN renal = system: ACHN renal
CAKI-1 renal = system: CAKI-1 renal
COLO 205 colon = system: COLO 205 colon
DU-145 prostate = system: DU-145 prostate
EKVX NSCLC = system: EKVX NSCLC
HCC-2998 colon = system: HCC-2998 colon
HCT-15 colon = system: HCT-15 colon
HL-60(TB) leukemia = system: HL-60(TB) leukemia
HOP-92 NSCLC = system: HOP-92 NSCLC
KM12 colon = system: KM12 colon
M14 melanoma = system: M14 melanoma
MALME-3M melanoma = system: MALME-3M melanoma
MCF7 breast = system: MCF7 breast
MDA-MB-231 breast = system: MDA-MB-231 breast
MDA-MB-435 = system: MDA-MB-435
NCI-H226 lung = system: NCI-H226 lung
NCI-H23 lung = system: NCI-H23 lung
NCI/ADR-RES ovarian = system: NCI/ADR-RES ovarian
OVCAR-3 ovarian = system: OVCAR-3 ovarian
OVCAR-4 ovarian = system: OVCAR-4 ovarian
OVCAR-5 ovarian = system: OVCAR-5 ovarian
SF-268 CNS = system: SF-268 CNS
SF-295 CNS = system: SF-295 CNS
SK-MEL-28 melanoma = system: SK-MEL-28 melanoma
SK-OV-3 ovarian = system: SK-OV-3 ovarian
SN12C renal = system: SN12C renal
SW-620 colon = system: SW-620 colon
T-47D breast = system: T-47D breast
UO-31 renal = system: UO-31 renal
A549 NSCLC = system: A549 NSCLC
BT-549 breast = system: BT-549 breast
HCT-116 colon = system: HCT-116 colon
HOP-62 NSCLC = system: HOP-62 NSCLC
HT29 colon = system: HT29 colon
IGROV1 ovarian = system: IGROV1 ovarian
LOX IMVI melanoma = system: LOX IMVI melanoma
NCI-H460 lung = system: NCI-H460 lung
NCI-H522 lung = system: NCI-H522 lung
OVCAR-8 ovarian = system: OVCAR-8 ovarian
PC-3 prostate = system: PC-3 prostate
RPMI-8226 leukemia = system: RPMI-8226 leukemia
RXF 393 renal = system: RXF 393 renal
SF-539 CNS = system: SF-539 CNS
SK-MEL-2 melanoma = system: SK-MEL-2 melanoma
SK-MEL-5 melanoma = system: SK-MEL-5 melanoma
SNB-19 CNS = system: SNB-19 CNS
SNB-75 CNS = system: SNB-75 CNS
SR leukemia = system: SR leukemia
TK-10 renal = system: TK-10 renal
U251 CNS = system: U251 CNS
UACC-257 melanoma = system: UACC-257 melanoma
UACC-62 melanoma = system: UACC-62 melanoma

Work on `CCCCCCCCCCCCCCCCCC[S+](C)CC` (stereo not drawn) yielded a GI50 (786-0 renal) of 1250 nM, a TGI (786-0 renal) of 2660 nM and a GI50 (A498 renal) of 1710 nM. The TGI (A498 renal) was 4360 nM, the GI50 (ACHN renal) was 1330 nM and the TGI (ACHN renal) was 2960 nM. It also gave a GI50 (CAKI-1 renal) of 409 nM, a TGI (CAKI-1 renal) of 1600 nM and a GI50 (COLO 205 colon) of 1420 nM. It also gave a TGI (COLO 205 colon) of 2810 nM, a GI50 (DU-145 prostate) of 1410 nM and a TGI (DU-145 prostate) of 2750 nM. The GI50 (EKVX NSCLC) was 1950 nM, the TGI (EKVX NSCLC) was 4310 nM and the GI50 (HCC-2998 colon) was 1230 nM. The TGI (HCC-2998 colon) was 2680 nM, the GI50 (HCT-15 colon) was 2840 nM and the TGI (HCT-15 colon) was 16900 nM. It also gave a GI50 (HL-60(TB) leukemia) of 1170 nM, a TGI (HL-60(TB) leukemia) of 3800 nM and a GI50 (HOP-92 NSCLC) of 1380 nM. The TGI (HOP-92 NSCLC) was 4500 nM, the GI50 (KM12 colon) was 1140 nM and the TGI (KM12 colon) was 2450 nM. It also gave a GI50 (M14 melanoma) of 1330 nM, a TGI (M14 melanoma) of 2750 nM and a GI50 (MALME-3M melanoma) of 1380 nM. The TGI (MALME-3M melanoma) was 3450 nM, the GI50 (MCF7 breast) was 1860 nM and the TGI (MCF7 breast) was 4990 nM. The GI50 (MDA-MB-231 breast) was 1670 nM, the TGI (MDA-MB-231 breast) was 3830 nM and the GI50 (MDA-MB-435) was 1630 nM. It also gave a TGI (MDA-MB-435) of 3470 nM, a GI50 (NCI-H226 lung) of 2080 nM and a TGI (NCI-H226 lung) of 7580 nM. It also gave a GI50 (NCI-H23 lung) of 1380 nM, a TGI (NCI-H23 lung) of 3200 nM and a GI50 (NCI/ADR-RES ovarian) of 11400 nM. The TGI (NCI/ADR-RES ovarian) was 37200 nM, the GI50 (OVCAR-3 ovarian) was 1080 nM and the TGI (OVCAR-3 ovarian) was 2330 nM. The GI50 (OVCAR-4 ovarian) was 1650 nM, the TGI (OVCAR-4 ovarian) was 4350 nM and the GI50 (OVCAR-5 ovarian) was 1580 nM. It also gave a TGI (OVCAR-5 ovarian) of 4250 nM, a GI50 (SF-268 CNS) of 1180 nM and a TGI (SF-268 CNS) of 2880 nM. The GI50 (SF-295 CNS) was 1200 nM, the TGI (SF-295 CNS) was 2590 nM and the GI50 (SK-MEL-28 melanoma) was 1670 nM. For the same compound, the TGI (SK-MEL-28 melanoma) was 3710 nM, the GI50 (SK-OV-3 ovarian) was 1860 nM and the TGI (SK-OV-3 ovarian) was 5450 nM. For the same compound, the GI50 (SN12C renal) was 1860 nM, the TGI (SN12C renal) was 4440 nM and the GI50 (SW-620 colon) was 1460 nM. The TGI (SW-620 colon) was 2890 nM, the GI50 (T-47D breast) was 2360 nM and the TGI (T-47D breast) was 18800 nM. It also gave a GI50 (UO-31 renal) of 1200 nM and a TGI (UO-31 renal) of 2620 nM.

In the case of `CN(C)CCCCNc1ccc(NCCCCN(C)C)c2c1C(=O)c1c(O)ccc(O)c1C2=O`, the GI50 (786-0 renal) is reported as 1760 nM, the TGI (786-0 renal) is reported as 3140 nM and the GI50 (A498 renal) is reported as 13500 nM. It also gave a TGI (A498 renal) of 26300 nM, a GI50 (A549 NSCLC) of 1570 nM and a TGI (A549 NSCLC) of 2940 nM. It also gave a GI50 (ACHN renal) of 1610 nM, a TGI (ACHN renal) of 2960 nM and a GI50 (BT-549 breast) of 16000 nM. It also gave a TGI (BT-549 breast) of 29500 nM, a GI50 (CAKI-1 renal) of 8150 nM and a TGI (CAKI-1 renal) of 21600 nM. The GI50 (COLO 205 colon) was 13600 nM, the TGI (COLO 205 colon) was 28600 nM and the GI50 (DU-145 prostate) was 1290 nM. It also gave a TGI (DU-145 prostate) of 2550 nM, a GI50 (EKVX NSCLC) of 1810 nM and a TGI (EKVX NSCLC) of 3820 nM. The GI50 (HCC-2998 colon) was 1580 nM, the TGI (HCC-2998 colon) was 2930 nM and the GI50 (HCT-116 colon) was 1510 nM. For the same compound, the TGI (HCT-116 colon) was 2830 nM, the GI50 (HCT-15 colon) was 1550 nM and the TGI (HCT-15 colon) was 2930 nM. It also gave a GI50 (HL-60(TB) leukemia) of 1730 nM, a TGI (HL-60(TB) leukemia) of 4120 nM and a GI50 (HOP-62 NSCLC) of 1700 nM. It also gave a TGI (HOP-62 NSCLC) of 3130 nM, a GI50 (HT29 colon) of 1190 nM and a TGI (HT29 colon) of 2860 nM. The GI50 (IGROV1 ovarian) was 1520 nM, the TGI (IGROV1 ovarian) was 3030 nM and the GI50 (KM12 colon) was 1510 nM. It also gave a TGI (KM12 colon) of 2840 nM, a GI50 (LOX IMVI melanoma) of 1420 nM and a TGI (LOX IMVI melanoma) of 2730 nM. The GI50 (M14 melanoma) was 1810 nM, the TGI (M14 melanoma) was 3200 nM and the GI50 (MALME-3M melanoma) was 18300 nM. For the same compound, the TGI (MALME-3M melanoma) was 33500 nM, the GI50 (MCF7 breast) was 1590 nM and the TGI (MCF7 breast) was 2990 nM. For the same compound, the GI50 (MDA-MB-231 breast) was 1470 nM, the TGI (MDA-MB-231 breast) was 2780 nM and the GI50 (MDA-MB-435) was 13300 nM. For the same compound, the TGI (MDA-MB-435) was 26100 nM, the GI50 (NCI-H226 lung) was 14900 nM and the TGI (NCI-H226 lung) was 28100 nM. For the same compound, the GI50 (NCI-H23 lung) was 1630 nM, the TGI (NCI-H23 lung) was 2980 nM and the GI50 (NCI-H460 lung) was 1590 nM. It also gave a TGI (NCI-H460 lung) of 2940 nM, a GI50 (NCI-H522 lung) of 1770 nM and a TGI (NCI-H522 lung) of 3580 nM. For the same compound, the GI50 (NCI/ADR-RES ovarian) was 1620 nM, the TGI (NCI/ADR-RES ovarian) was 3080 nM and the GI50 (OVCAR-3 ovarian) was 1620 nM. For the same compound, the TGI (OVCAR-3 ovarian) was 2970 nM, the GI50 (OVCAR-4 ovarian) was 1420 nM and the TGI (OVCAR-4 ovarian) was 2760 nM. The GI50 (OVCAR-5 ovarian) was 1660 nM, the TGI (OVCAR-5 ovarian) was 3140 nM and the GI50 (OVCAR-8 ovarian) was 1550 nM. It also gave a TGI (OVCAR-8 ovarian) of 2940 nM, a GI50 (PC-3 prostate) of 1940 nM and a TGI (PC-3 prostate) of 3640 nM. It also gave a GI50 (RPMI-8226 leukemia) of 2540 nM, a TGI (RPMI-8226 leukemia) of 6490 nM and a GI50 (RXF 393 renal) of 1750 nM. For the same compound, the TGI (RXF 393 renal) was 11200 nM, the GI50 (SF-268 CNS) was 10400 nM and the TGI (SF-268 CNS) was 22100 nM. It also gave a GI50 (SF-295 CNS) of 1750 nM, a TGI (SF-295 CNS) of 3300 nM and a GI50 (SF-539 CNS) of 10900 nM. For the same compound, the TGI (SF-539 CNS) was 24600 nM, the GI50 (SK-MEL-2 melanoma) was 18000 nM and the TGI (SK-MEL-2 melanoma) was 32500 nM. For the same compound, the GI50 (SK-MEL-28 melanoma) was 17800 nM, the TGI (SK-MEL-28 melanoma) was 31700 nM and the GI50 (SK-MEL-5 melanoma) was 13500 nM. For the same compound, the TGI (SK-MEL-5 melanoma) was 26300 nM, the GI50 (SK-OV-3 ovarian) was 3060 nM and the TGI (SK-OV-3 ovarian) was 9800 nM. For the same compound, the GI50 (SN12C renal) was 13100 nM, the TGI (SN12C renal) was 25800 nM and the GI50 (SNB-19 CNS) was 13200 nM. It also gave a TGI (SNB-19 CNS) of 26000 nM, a GI50 (SNB-75 CNS) of 12800 nM and a TGI (SNB-75 CNS) of 25300 nM. It also gave a GI50 (SR leukemia) of 1720 nM, a TGI (SR leukemia) of 5010 nM and a GI50 (SW-620 colon) of 1510 nM. For the same compound, the TGI (SW-620 colon) was 2830 nM, the GI50 (T-47D breast) was 18500 nM and the TGI (T-47D breast) was 33200 nM. For the same compound, the GI50 (TK-10 renal) was 13300 nM, the TGI (TK-10 renal) was 26400 nM and the GI50 (U251 CNS) was 1690 nM. It also gave a TGI (U251 CNS) of 3080 nM, a GI50 (UACC-257 melanoma) of 18400 nM and a TGI (UACC-257 melanoma) of 32300 nM. The GI50 (UACC-62 melanoma) was 15300 nM, the TGI (UACC-62 melanoma) was 29100 nM and the GI50 (UO-31 renal) was 1430 nM. It also gave a TGI (UO-31 renal) of 2930 nM.
